In US8163661B2, “Luminescence measurement system” (Olympus Corporation, priority 2007, dated 2012):

Key:
[1] = test system: HeLa cell (pGL3 transfected); details: pGL3 transfected to HeLa cell, measured with time
Procedure: Specifically, in the experiments conducted by the present inventor, pGL3 was transfected to HeLa cell and, by making use of FCCP acting as an uncoupler, the production of ATP in mitochondria was suspended and then the luminescence intensity on this occasion was measured with time by making use of LUMINOVIEW (LV100) (trade name).

cytoplasmic ATP = details: 30 minutes after treatment with FCCP; cited from earlier work

## N#CC(C#N)=NNc1ccc(OC(F)(F)F)cc1 [FCCP, carbonyl cyanide p-(trifluoromethoxy) phenylhydrazone]
[1]
  luminescence intensity after FCCP: not attenuated
Cytoplasmic ATP
  concentration of cytoplasmic ATP relative to steady state: about 50 % of that of steady state
